Tested on: Streptomyces sp. NCIB 40068
Assay: Resistance of the producing strain (Table B)
Assay type: cell-based
Details: producing strain Streptomyces sp. NCIB 40068

| Compound | Resistance to (antimicrobial) [ppm] |
| --- | --- |
| Lysozyme | 10 |
| CN(C)C1C(=O)C(C(N)=O)=C(O)C2(O)C(=O)C3=C(O)c4c(O)cccc4C(C)(O)C3C(O)C12 (stereo not drawn) [Oxytetracycline] | 8 |
| CO[C@H]1/C=C/O[C@@]2(C)Oc3c(C)c(O)c4c(O)c(c(/C=N/N5CCN(C)CC5)c(O)c4c3C2=O)NC(=O)/C(C)=C\C=C\[C@H](C)[C@H](O)[C@@H](C)[C@@H](O)[C@@H](C)[C@H](OC(C)=O)[C@@H]1C [Rifampicin] | 2 |

From patent US5126265A, “AB-021 antibiotics and process for producing them” (Presidenza del Consiglio dei Ministri-Ufficio del Ministro …, priority 1988, dated 1992)
